Assay results published in BindingDB's records for doi:10.7270/Q2WQ02FK (The Scripps Research Institute Molecular Screening Center, 2013).
pIC50: −log10 of the molar value.

Target: T1, T cell receptor alpha variable 4 (Homo sapiens, UniProt A0A0B4J268)
T1 sequence (A0A0B4J268 whole entry): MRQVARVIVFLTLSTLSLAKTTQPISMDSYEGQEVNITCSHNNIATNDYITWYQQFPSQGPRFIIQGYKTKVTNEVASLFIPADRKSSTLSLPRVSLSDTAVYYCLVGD

SMILES	pIC50
CC1=CC(/C=N/n2c(COc3ccccc3C)nc3ccccc3c2=O)C(=O)C([N+](=O)[O-])=C1 (configuration not stated)	< 4.03
COc1ccc(CC(=O)N/N=C/C2C=C([N+](=O)[O-])C=C(Br)C2=O)cc1 (configuration not stated)	< 4.03
CC1=CC(/C=N/n2c(CO[N-][C+](C)c3ccccc3)nc3ccccc3c2=O)C(=O)C([N+](=O)[O-])=C1 (configuration not stated)	< 4.03
O=C(N/N=C/C1C=CC=C([N+](=O)[O-])C1=O)c1cccs1 (configuration not stated)	< 4.03
COC1=CC([N+](=O)[O-])=CC(/C=N/NC(=O)c2cc(C)nc3ccccc23)C1=O (configuration not stated)	< 4.03
O=C(N/N=C/C1C=C([N+](=O)[O-])C=CC1=O)c1cccc(N2CCCC2=O)c1 (configuration not stated)	< 4.03
CCOC(=O)C1C(CC)=Nc2ccccc2N=C1NC(=O)Nc1ccc(Cl)c(Cl)c1 (configuration not stated)	4.97
O=C(NN=CC1=CC(=O)C(=O)CC1)NN=CC1=CC(=O)C(=O)CC1 [1,3-bis[[(Z)-(3-hydroxy-4-oxocyclohexa-2,5-dien-1-ylidene)methyl]amino]urea]	5.99
O=C1C([N+](=O)[O-])=CC(Cl)=CC1C=NNC(=S)Nc1ccc(S(=O)(=O)N2CCOCC2)cc1 (configuration not stated) [1-[[(E)-(3-chloro-5-nitro-6-oxo-1-cyclohexa-2,4-dienylidene)methyl]amino]-3-[4-(4-morpholinylsulfonyl)phenyl]thiourea]	< 4.03
Nc1nnc(CC(=O)N/N=C/C2C=C([N+](=O)[O-])C=CC2=O)s1 (configuration not stated) [2-(5-amino-1,3,4-thiadiazol-2-yl)-N'-[(E)-(3-nitro-6-oxo-1-cyclohexa-2,4-dienylidene)methyl]acetohydrazide]	< 4.03
O=C(CNC(=O)c1ccccc1Br)N/N=C/C1C=C([N+](=O)[O-])C=C(Br)C1=O (configuration not stated) [2-bromanyl-N-[2-[2-[(E)-(5-bromanyl-3-nitro-6-oxidanylidene-cyclohexa-2,4-dien-1-ylidene)methyl]hydrazinyl]-2-oxidanylidene-ethyl]benzamide]	< 4.03
CCC(NNC(=O)c1ccccc1O)=C1C(=O)NC(=O)N(Cc2ccccc2)C1=O [2-hydroxy-N'-[(1E)-1-[2,4,6-trioxo-1-(phenylmethyl)-1,3-diazinan-5-ylidene]propyl]benzohydrazide]	< 4.03
O=C1NC(=O)N(CCc2ccccc2)C(=O)C1=CNNC(=O)c1ccccc1O [2-hydroxy-N'-[(E)-[2,4,6-trioxo-1-(2-phenylethyl)-1,3-diazinan-5-ylidene]methyl]benzohydrazide]	< 4.03
O=C1C=CC([N+](=O)[O-])=CC1/C=N/n1c(COc2ccccc2)nc2ccccc2c1=O (configuration not stated) [3-[[(E)-(3-nitro-6-oxocyclohexa-2,4-dien-1-ylidene)methyl]amino]-2-(phenoxymethyl)quinazolin-4-one]	< 4.03
O=C1CC(=O)c2c(O)cc(O)c(O)c2C1=O [4,5,7,8-tetrahydroxy-1,2-naphthoquinone]	< 4.03
Oc1c(Br)cc(CC=Nc2cc(O)c3cccnc3c2O)cc1Br [7-[2-(3,5-dibromo-4-hydroxyphenyl)ethylamino]quinoline-5,8-dione]	4.73
Oc1ccc(CN=Nc2ncnc3c2ncn3Cc2ccccc2)cc1O [(4Z)-2-oxidanyl-4-[[2-[9-(phenylmethyl)purin-6-yl]hydrazinyl]methylidene]cyclohexa-2,5-dien-1-one]	< 4.03
O=[N+]([O-])c1cc(Br)c(O)c(CN=Nc2nnnn2-c2cccc3ccccc23)c1 [(6E)-2-bromo-6-[[2-(1-naphthalen-1-yltetrazol-5-yl)hydrazinyl]methylidene]-4-nitrocyclohexa-2,4-dien-1-one]	< 4.03
CCc1n[nH]c(=S)n1N=CC1C=C(OC)C=C([N+](=O)[O-])C1=O (configuration not stated) [(6E)-6-[[(3-ethyl-5-sulfanylidene-1H-1,2,4-triazol-4-yl)amino]methylidene]-4-methoxy-2-nitro-1-cyclohexa-2,4-dienone]	4.73
C=CCN1C(=O)/C(=N\NC(=O)CNC(=O)/C=C/c2ccco2)c2ccccc21 [(E)-N-[1-Allyl-2-oxo-1,2-dihydro-indol-(3Z)-ylidene-hydrazinocarbonylmethyl]-3-furan-2-yl-acrylamide]	< 4.03
O=C(N/N=C/C1C=C([N+](=O)[O-])C=CC1=O)/C(=C\c1cccs1)NC(=O)c1ccccc1 (configuration not stated) [MLS000332530]	< 4.03
Cc1cc(C(=O)N/N=C/C2C=C(Br)C=C([N+](=O)[O-])C2=O)c2ccccc2n1 (configuration not stated) [MLS000585468]	< 4.03
Cc1cc(=O)oc2cc(OCC(=O)N/N=C/C3C=C([N+](=O)[O-])C=CC3=O)ccc12 (configuration not stated) [MLS000588734]	< 4.03
COC1=CC(=O)C(/C=N/NC(=O)c2ccncc2)C(OC)=C1[N+](=O)[O-] (configuration not stated) [MLS000673335]	< 4.03

SMILES	pIC50
Cc1cc2cc(CNC(=O)c3ccc(C)c([N+](=O)[O-])c3)ccc2[nH]1 [MLS000724615]	< 4.03
O=C(CSc1nc2ccccc2s1)N/N=C/C1C=C([N+](=O)[O-])C=CC1=O (configuration not stated) [MLS000777065]	< 4.03
O=C1C=CC([N+](=O)[O-])=CC1C=NNC(=S)Nc1ccc(Cl)cc1Cl (configuration not stated) [MLS000777079]	< 4.03
CC1=CC([N+](=O)[O-])=CC(/C=N/n2c(C)nc3ccccc3c2=O)C1=O (configuration not stated) [MLS000778735]	< 4.03
CN1C(=O)C(C=NNC(=O)c2cc3ccccc3cc2O)c2ccccc21 (configuration not stated) [MLS000912237]	< 4.03
O=C(N/N=C/C1C=C(Cl)C=C([N+](=O)[O-])C1=O)c1cccc(S(=O)(=O)N2CCOCC2)c1 (configuration not stated) [MLS002155639]	< 4.03
O=C(N/N=C/C1C=C(Cl)C=C([N+](=O)[O-])C1=O)c1ccc2c(c1)OCO2 (configuration not stated) [N'-[(E)-(3-chloranyl-5-nitro-6-oxidanylidene-cyclohexa-2,4-dien-1-ylidene)methyl]-1,3-benzodioxole-5-carbohydrazide]	< 4.03
Cc1cc(C(=O)N/N=C/C2C=C(Cl)C=C([N+](=O)[O-])C2=O)c2ccccc2n1 (configuration not stated) [N'-[(E)-(3-chloranyl-5-nitro-6-oxidanylidene-cyclohexa-2,4-dien-1-ylidene)methyl]-2-methyl-quinoline-4-carbohydrazide]	< 4.03
CC1=CC([N+](=O)[O-])=CC(/C=N/NC(=O)C2COc3ccccc3O2)C1=O (configuration not stated) [N'-[(E)-(5-methyl-3-nitro-6-oxocyclohexa-2,4-dien-1-ylidene)methyl]-2,3-dihydro-1,4-benzodioxine-3-carbohydrazide]	< 4.03
O=C1NC(=O)N(Cc2ccco2)C(=O)C1=CNNC(=O)c1ccccc1O [N'-[(E)-[1-(furan-2-ylmethyl)-2,4,6-tris(oxidanylidene)-1,3-diazinan-5-ylidene]methyl]-2-oxidanyl-benzohydrazide]	< 4.03
O=C1NC(=O)N(Cc2ccco2)C(=O)C1=CNNC(=O)c1ccccc1 [N'-[(E)-[1-(furan-2-ylmethyl)-2,4,6-tris(oxidanylidene)-1,3-diazinan-5-ylidene]methyl]benzohydrazide]	< 4.03
Cc1ccccc1C(=O)Nc1cccc(C(=O)N/N=C/C2C=C(Cl)C=C([N+](=O)[O-])C2=O)c1 (configuration not stated) [N-(3-{[(2E)-2-(5-chloro-2-hydroxy-3-nitrobenzylidene)hydrazino]carbonyl}phenyl)-2-methylbenzamide]	< 4.03
Cc1ccc(C(=O)Nc2nc(C(C)(C)C)cs2)s1 [N-(4-tert-butyl-2-thiazolyl)-5-methyl-2-thiophenecarboxamide]	< 4.03
O=C(NC(C(=O)NN=CC1C=C([N+](=O)[O-])C=CC1=O)c1n[nH]c(=O)c2ccccc12)c1ccccc1 (configuration not stated) [N-[2-[2-[(E)-(3-nitro-6-oxidanylidene-cyclohexa-2,4-dien-1-ylidene)methyl]hydrazinyl]-2-oxidanylidene-1-(4-oxidanylidene-3H-phthalazin-1-yl)ethyl]benzamide]	< 4.03
CC(NNC(=O)c1ccc(-c2ccccc2)cc1)=C1C(=O)c2ccccc2C1=O [N-[(E)-1-(1,3-dioxoinden-2-yl)ethylideneamino]-4-phenylbenzamide]	< 4.03
O=C(N/N=C/C1C=C([N+](=O)[O-])C=C([N+](=O)[O-])C1=O)/C(=C\c1cccs1)NC(=O)c1ccccc1 (configuration not stated) [SMR000207704]	< 4.03
O=C1C([N+](=O)[O-])=CC=CC1/C=N/n1cnc2scc(-c3ccc(Cl)cc3)c2c1=O (configuration not stated) [SMR000314525]	< 4.03
Cc1cc(C(=O)NN=CC2C=C(Cl)C=C([N+](=O)[O-])C2=O)[nH]n1 (configuration not stated) [SMR000414694]	< 4.03
Cc1c(NC(=S)NN=CC2C=C([N+](=O)[O-])C=CC2=O)c(=O)n(-c2ccccc2)n1C (configuration not stated) [SMR000415003]	< 4.03
COc1ccc(C(=O)CC=NNC(=O)c2ccc(Cl)cc2)cc1 [SMR000499516]	< 4.03
O=Nc1[nH]c(=O)c(CC(=O)c2ccccc2)nc1NO [SMR000539633]	< 4.03
O=C(O)c1ccccc1NS(=O)(=O)c1ccc(N=NCc2ccc(O)c(O)c2)c([N+](=O)[O-])c1 [SMR001238114]	4.49
CCOC(=O)c1c(C)[nH]c(C(=O)N/N=C/C2C=C([N+](=O)[O-])C=CC2=O)c1C (configuration not stated) [ethyl 2,4-dimethyl-5-[[[(E)-(3-nitro-6-oxocyclohexa-2,4-dien-1-ylidene)methyl]amino]carbamoyl]-1H-pyrrole-3-carboxylate]	< 4.03
